This is an account of results in patent US20160046618A1, “Cyclopropyl Fused Thiazin-2-Amine Compounds as Beta-Secretase Inhibitors and Methods of Use” (AMGEN INC., priority 2014, published 2016).

SMILES strings stand for the structures. Like-named read-outs stand apart in the source and are kept apart here. Where only a bound is given, the exact number is not on record here.

The target of assay [1] is human recombinant BACE2 (Homo sapiens (Human), UniProt Q9Y5Z0). The assay is described as follows: In vitro enzymatic BACE2 FRET assay. Particulars: read-out: IC50 IP (μM) BACE2 enzyme. Format: biochemical. On the procedure:
(§1) These recombinant proteins were further purified using Ni-NTA affinity chromatography (Qiagen). […] This assay is effectively started by the addition of FRET substrate (50 nM) and the combination is incubated for one hour. The FRET assay is terminated by addition of Tris buffer, which raises the pH to neutrality, and the fluorescence is determined. The FRET substrate is a peptide with commercially available fluorophore and quencher, on opposite sides of the BACE cleavage site. Proteolytic cleavage of the FRET substrate releases quenching of fluorescence (excitation 488 nm and emission 590 nm).

Assay [2] has as its target Recombinant Cat D (Homo sapiens (Human), UniProt P07339). The assay is described as follows: In vitro enzymatic Cathepsin D (Cat D) FRET assay. Format: biochemical. Particulars: read-out: IC50 IP (μM) CatD. As to the method: In Vitro Enzymatic Cathepsin D (Cat D) FRET (Fluorescence Resonance Energy Transfer) Assay
Recombinant Cat D was expressed in CHO cells. The assay buffer for CathepsinD is 0.05 M citrate pH 3.5, 10% DMSO final, 5 mM CHAPS. […] The assays are effectively started by the addition of different FRET substrates (20 nM for Cat D) and the combination is incubated for one hour. The FRET assay is terminated with by addition of Tris buffer, which raises the pH to neutrality, and the fluorescence is determined. The FRET substrate is a peptide with commercially available fluorophore and quencher, on opposite sides of the BACE cleavage site. The Cat D substrate peptide sequence is based on sequence #1 of Table 1 from Gulnik et al. FEBS Letters v413 p 379-384 1997. Proteolytic cleavage of the FRET substrate releases quenching of fluorescence (Cat D excitation 500 nm and emission 580 nm).

Assay [3] addresses human recombinant BACE1 (Homo sapiens (Human), UniProt P56817). The assay is described as follows: In vitro enzymatic BACE1 FRET assay. The format is biochemical. Particulars: read-out: IC50 IP (μM) BACE1 enzyme. On the procedure:
as §1

Assay [4] has as its system Aβ40 in conditioned medium of cells stably expressing Amyloid Precursor Protein (APP). The assay is described as follows: In vitro BACE-1 cell-based assay (Aβ40 sandwich ELISA). Particulars: read-out: IC50 IP (μM) BACE1 cell. As to the method:
In Vitro BACE-1 Cell-Based Assay
The cell-based assay measures inhibition or reduction of Aβ40 in conditioned medium of test compound treated cells expressing amyloid precursor protein. Cells stably expressing Amyloid Precursor Protein (APP) were plated at a density of 40K cells/well in 96 well plates (Costar). The cells were cultivated for 24 hours at 37° C. and 5% CO2 in DMEM supplemented with 10% FBS. The test compounds were then added to cells in 10-point dose response concentrations with the starting concentration being either 100 μM or 10 μM. The compounds were diluted from stock solutions in DMSO and the final DMSO concentration of the test compounds on cells was 0.1%. After 24 h of incubation with the test compounds the supernatant conditioned media was collected and the Aβ40 levels were determined using a sandwich ELISA. The IC50 of the compound was calculated from the percent of control or percent inhibition of Aβ40 as a function of the concentration of the test compound.
The sandwich ELISA to detect Aβ40 was performed in 96 well microtiter plates, which were pre-treated with goat anti-rabbit IgG (Pierce). The capture and detecting antibody pair that were used to detect Aβ40 from cell supernatants were affinity purified pAb40 (Biosource) and biotinylated 6E10 (Signet Labs Inc.), respectively. The optimal concentration for the pAb40 antibody was 3 μg/ml in Superblock/TBS (Pierce) that was supplemented with 0.05% Tween 20 (Sigma). […] Cellular supernatants were incubated with the capture antibody for 3 h at 4° C., followed by 3 wash steps in TBS-tween (0.05%). The detecting antibody incubation was for 2 h at 4° C., again followed by the wash steps as described previously. The final readout of the ELISA is Time-Resolved Fluorescence (counts per minute) using Delfia reagents Streptavidin-Europium and Enhancement solutions (Perkin Elmer) and the Victor 2 multilabel counter (Perkin Elmer).
Background: In an ELISA, binding on a coated surface is turned into a signal by an enzyme label.

Recombinant Cat D, sequence (P07339 65-412): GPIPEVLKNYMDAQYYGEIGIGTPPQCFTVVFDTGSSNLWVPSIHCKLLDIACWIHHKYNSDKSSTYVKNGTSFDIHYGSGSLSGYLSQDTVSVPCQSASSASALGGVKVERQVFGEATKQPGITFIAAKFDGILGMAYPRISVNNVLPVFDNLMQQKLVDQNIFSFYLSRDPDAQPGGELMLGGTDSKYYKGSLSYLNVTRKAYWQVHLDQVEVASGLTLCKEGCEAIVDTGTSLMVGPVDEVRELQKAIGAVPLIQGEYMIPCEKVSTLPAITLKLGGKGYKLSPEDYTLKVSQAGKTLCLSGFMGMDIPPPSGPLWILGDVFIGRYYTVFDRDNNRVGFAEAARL
human recombinant BACE2, sequence (Q9Y5Z0 63-518): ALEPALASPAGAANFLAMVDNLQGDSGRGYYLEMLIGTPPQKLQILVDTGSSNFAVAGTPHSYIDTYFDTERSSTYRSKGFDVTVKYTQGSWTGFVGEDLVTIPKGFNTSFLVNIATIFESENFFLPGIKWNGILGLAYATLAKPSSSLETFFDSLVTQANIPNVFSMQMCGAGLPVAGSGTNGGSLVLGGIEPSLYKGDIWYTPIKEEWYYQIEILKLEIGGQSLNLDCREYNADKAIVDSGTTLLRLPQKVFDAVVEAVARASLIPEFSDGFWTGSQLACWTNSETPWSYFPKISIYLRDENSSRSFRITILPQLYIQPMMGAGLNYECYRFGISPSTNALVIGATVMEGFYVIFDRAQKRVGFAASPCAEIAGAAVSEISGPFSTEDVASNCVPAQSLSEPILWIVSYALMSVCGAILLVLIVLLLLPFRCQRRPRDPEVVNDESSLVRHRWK
human recombinant BACE1, sequence (P56817 46-501): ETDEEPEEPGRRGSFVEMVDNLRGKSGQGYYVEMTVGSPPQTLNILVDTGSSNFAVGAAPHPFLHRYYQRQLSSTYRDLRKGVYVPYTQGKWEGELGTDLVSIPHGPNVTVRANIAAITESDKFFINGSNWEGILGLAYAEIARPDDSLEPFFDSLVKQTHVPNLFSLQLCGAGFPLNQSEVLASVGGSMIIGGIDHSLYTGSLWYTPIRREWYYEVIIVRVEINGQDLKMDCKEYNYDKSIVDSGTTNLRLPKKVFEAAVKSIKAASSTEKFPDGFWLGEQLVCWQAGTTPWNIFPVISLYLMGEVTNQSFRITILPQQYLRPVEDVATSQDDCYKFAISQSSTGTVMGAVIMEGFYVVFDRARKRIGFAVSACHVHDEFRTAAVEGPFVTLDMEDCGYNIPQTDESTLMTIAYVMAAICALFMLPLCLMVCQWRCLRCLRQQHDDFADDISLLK

`C#CCOc1cnc(C(=O)Nc2cc(F)c(F)c([C@@]3(C)N=C(N)S[C@@]4(S(C)(=O)=O)C[C@H]43)c2)cn1` [Example 744, N-(3-((1R,5S,6S)-3-amino-5-methyl-1-(methylsulfonyl)-2-thia-4-azabicyclo[4.1.0]hept-3-en-5-yl)-4,5-difluorophenyl)-5-(2-propyn-1-yloxy)-2-pyrazinecarboxamide]: the IC50 in assay [1] came to 0.0183 µM; in assay [2] it was 46.5 µM; in assay [3], 0.00029 µM; in assay [4], 0.000872 µM.

For the compound `C[C@]1(c2cc(Nc3ncnc4cc(OCc5ncco5)cnc34)cnc2F)N=C(N)S[C@@]2([C@H](O)C(F)(F)F)C[C@H]21` [Example 667, (1R)-1-((1S,5S,6S)-3-amino-5-(2-fluoro-5-((7-(1,3-oxazol-2-ylmethoxy)pyrido[3,2-d]pyrimidin-4-yl)amino)-3-pyridinyl)-5-methyl-2-thia-4-azabicyclo[4.1.0]hept-3-en-1-yl)-2,2,2-trifluoroethanol], the half-maximal inhibitory concentration (IC50) in assay [1] amounted to 0.0599 µM; in assay [2], 1160 µM; in assay [3] it was 0.00262 µM; in assay [4] it was 0.00362 µM.

In the case of `[2H]C([2H])([2H])OC[C@]12C[C@H]1[C@@](C)(c1cc(NC(=O)c3ncc(OCC#C)nc3C)cnc1F)N=C(N)S2` [Example 850, N-(5-((1S,5S,6S)-3-amino-5-methyl-1-(((~2~H_3_)methyloxy)methyl)-2-thia-4-azabicyclo[4.1.0]hept-3-en-5-yl)-6-fluoro-3-pyridinyl)-3-methyl-5-(2-propyn-1-yloxy)-2-pyrazinecarboxamide], the 50% inhibitory concentration (IC50) stood at 0.00886 µM in assay [1], 1150 µM in assay [2], 0.00121 µM in assay [3] and 0.00207 µM in assay [4].

With `CN(C)C(=O)/C=C/[C@]12C[C@H]1[C@@](CF)(c1cc(Nc3nccc4nc(OCc5ncco5)cnc34)ccc1F)N=C(N)S2` [Example 769, (2E)-3-((1R,5S,6S)-3-amino-5-(fluoromethyl)-5-(2-fluoro-5-((2-(1,3-oxazol-2-ylmethoxy)pyrido[3,4-b]pyrazin-5-yl)amino)phenyl)-2-thia-4-azabicyclo[4.1.0]hept-3-en-1-yl)-N,N-dimethyl-2-propenamide], the half-inhibitory concentration (IC50) is 0.023 µM in assay [1], 224 µM in assay [2], 0.00143 µM in assay [3] and 0.00121 µM in assay [4].

As to `C#CCOc1cnc(C(=O)Nc2ccc(F)c([C@@]3(CF)N=C(N)S[C@@]4(COC(C)C)C[C@H]43)c2)cn1` [Example 955, N-(3-((1S,5S,6S)-3-amino-5-(fluoromethyl)-1-((1-methylethoxy)methyl)-2-thia-4-azabicyclo[4.1.0]hept-3-en-5-yl)-4-fluorophenyl)-5-(2-propyn-1-yloxy)-2-pyrazinecarboxamide], the IC50 in assay [1] is 0.0501 µM; in assay [2] it was 48 µM; in assay [3] it was 0.000805 µM; in assay [4] it was 0.00178 µM.

With `C/C(=C\[C@]12C[C@H]1[C@@](CF)(c1cc(NC(=O)c3ccc(Cl)cn3)ccc1F)N=C(N)S2)C(=O)N1CCOCC1` [Example 778, N-(3-((1R,5S,6S)-3-amino-5-(fluoromethyl)-1-((E)-2-methyl-3-morpholino-3-oxoprop-1-en-1-yl)-2-thia-4-azabicyclo[4.1.0]hept-3-en-5-yl)-4-fluorophenyl)-5-chloropicolinamide], the IC50 in assay [1] was found to be 0.0026 µM; in assay [2], 557 µM; in assay [3], 0.00558 µM; in assay [4] it was 0.0134 µM.

`COC[C@]12C[C@H]1[C@@](C)(c1cc(NC(=O)c3cnc(OCC4(C)COC4)cn3)ccc1F)N=C(N)S2` [Example 1050, N-(3-((1S,5S,6S)-3-amino-1-(methoxymethyl)-5-methyl-2-thia-4-azabicyclo[4.1.0]hept-3-en-5-yl)-4-fluorophenyl)-5-((3-methyl-3-oxetanyl)methoxy)-2-pyrazinecarboxamide]: the half-inhibitory concentration (IC50) in assay [1] is 1.19 µM; in assay [2], more than 400 µM; in assay [3], 0.03 µM; in assay [4], 0.035 µM.

On to `C#CCOc1cnc2c(Nc3ccc(F)c([C@@]4(C)N=C(N)S[C@]5([C@H](C)O)[C@H]4C5(F)F)c3)nccc2n1` [Example 714, (1S)-1-((1S,5S,6R)-3-amino-7,7-difluoro-5-(2-fluoro-5-((2-(2-propyn-1-yloxy)pyrido[3,4-b]pyrazin-5-yl)amino)phenyl)-5-methyl-2-thia-4-azabicyclo[4.1.0]hept-3-en-1-yl)ethanol], for which the IC50 in assay [1] was found to be 0.00913 µM; in assay [2] it was 613 µM; in assay [3], 0.00102 µM; in assay [4], 0.0109 µM.

Consider `NC1=N[C@](CF)(c2cc(Nc3nccc4nc(C(F)(F)F)cnc34)ccc2F)C2C[C@@H]2S1` (stereo in doubt) [Example 87, N-(3-((1S,5S,6S)-3-amino-5-(fluoromethyl)-2-thia-4-azabicyclo[4.1.0]hept-3-en-5-yl)-4-fluorophenyl)-2-(trifluoromethyl)pyrido[3,4-b]pyrazin-5-amine], for which the IC50 in assay [1] (BACE2 FRET enzyme assay) was 0.271 µM; in assay [2] (Cathepsin D FRET enzyme assay) it was 2810 µM; in assay [3] (BACE1 FRET enzyme assay) it was 0.114 µM; in assay [4] (BACE1 cell-based assay), 22.6 µM.

`C#CCOc1cnc(C(=O)Nc2cc(F)c(F)c([C@@]3(CF)N=C(N)S[C@@]4(CO)C[C@H]43)c2)cn1` [Example 83, N-(3-((1S,5S,6S)-3-amino-5-(fluoromethyl)-1-(hydroxymethyl)-2-thia-4-azabicyclo[4.1.0]hept-3-en-5-yl)-4,5-difluorophenyl)-5-(2-propyn-1-yloxy)-2-pyrazinecarboxamide]: the IC50 in assay [1] (BACE2 FRET enzyme assay) is 0.0138 µM; in assay [2] (Cathepsin D FRET enzyme assay) it was 105 µM; in assay [3] (BACE1 FRET enzyme assay), 0.00046 µM; in assay [4] (BACE1 cell-based assay) it was 0.00092 µM.

As to `NC1=N[C@](CF)(c2cc(NC(=O)c3ccc(Cl)cn3)ccc2F)[C@@H]2C[C@]2(CCCO)S1` [Example 758, N-(3-((1S,5S,6S)-3-amino-5-(fluoromethyl)-1-(3-hydroxypropyl)-2-thia-4-azabicyclo[4.1.0]hept-3-en-5-yl)-4-fluorophenyl)-5-chloropicolinamide], the IC50 in assay [1] was less than 0.00203 µM; in assay [2], 2070 µM; in assay [3], 0.00156 µM; in assay [4] it was 0.00195 µM.

For `C[C@]1(c2cc(Nc3ncnc4cc(OCc5ncco5)cnc34)cnc2F)N=C(N)S[C@@]2([C@@H](O)C(F)(F)F)C[C@H]21` [Example 668, (1S)-1-((1S,5S,6S)-3-amino-5-(2-fluoro-5-((7-(1,3-oxazol-2-ylmethoxy)pyrido[3,2-d]pyrimidin-4-yl)amino)-3-pyridinyl)-5-methyl-2-thia-4-azabicyclo[4.1.0]hept-3-en-1-yl)-2,2,2-trifluoroethanol], the concentration for half-maximal inhibition (IC50) turned out to be 0.233 µM in assay [1], 1970 µM in assay [2], 0.0033 µM in assay [3] and 0.00697 µM in assay [4].

Turning to `COC[C@]12C[C@H]1[C@@](C)(c1cc(NC(=O)c3cnc(OCc4cc(C)on4)cn3)cc(F)c1F)N=C(N)S2` [Example 1032, N-(3-((1S,5S,6S)-3-amino-1-(methoxymethyl)-5-methyl-2-thia-4-azabicyclo[4.1.0]hept-3-en-5-yl)-4,5-difluorophenyl)-5-((5-methyl-3-isoxazolyl)methoxy)-2-pyrazinecarboxamide], the concentration for half-maximal inhibition (IC50) in assay [1] came to 0.0465 µM; in assay [2], 1020 µM; in assay [3] it was 0.00106 µM; in assay [4], 0.0323 µM.

As a reminder, the IC50 is the concentration that gives 50% inhibition.
